The values that follow come from patent US20100183524A1, “ANTIOXIDANT COMPOSITIONS FOR SOFT ORAL TISSUE AND METHODS OF FORMULATION AND USE THEREOF” (Perio Sciences, LLC, priority 2008, published 2010).

Data set [1] deals with Human periodontal ligament fibroblasts (HPDL).
Protocol: Culture conditions as described in HGF were similarly employed in the HPDL cells. In this experiment, 5×10^3 cells in 100 μL of culture medium were seeded into each well of a 96-well plate. […] Bioactive antioxidant mixtures tested included: resveratrol, ferulic acid and tetrahydrocurcuminoids (RFT), phloretin, ferulic acid and resveratrol (PFR), phloretin, ferulic acid and tetrahydrocurcuminoids (PFT).
Cells were washed with PBS and treated with antioxidant mixtures (RFT, PFR, PFT) in 0.1% FBS medium (DMEM and 1% antimycotic/antiobiotic) for 24 hours.
Different ethanol concentrations (15%, 10% and 5%) were used for dose response experiments for 30 or 60 minutes.
After pretreatment with ethanol or H2O2, the cells were rinsed and treated with 10^−5M (0.4% wt/v) antioxidant mixture (RFT, PFR, PFT) for 24 hrs.
(§3) Cell viability and survival were assessed by MTS colorimetric assay (3-[4,5-dimethylthiazol-2-yl]-5-[3-carboxymethoxyphenyl]-2-[4-sulfophenyl]-2H-tetrazolium) (Promega Corp., Madison, Wis.). This quantitative assay detects living but not dead cells. […] The absorbance at 490 nm was measured using a SpectraMax microplate spectrophotometer (Molecular Devices, Sunnyvale, Calif.). […]
a. Percent viable cells were expressed as; A/B, where A is absorbance at 490 nm with antioxidant compounds (RFT, PFR, PFT) and H2O2 or Ethanol pre-treatments; B absorbance at 490 nm with 0.1% FBS (control). […]
Data set [2] relates to human gingival fibroblasts (HGF).
Protocol: Human gingival tissues from healthy nonsmokers were collected with institutional review board approval and tissues were cultured in high glucose Dulbecco's modified eagles medium (DMEM), 10% FBS, and 1% antimycotic/antiobiotic. Tissues were incubated at 37° C. in a humidified gas mixture (5% CO2 and 95% air) and medium was changed every 24 hours. Human gingival fibroblasts (HGF) grew from the tissue after a week. Cells were passaged using 0.25% trypsin solutions and plated in new tissue culture flasks when confluent. Passages 3-12 were used in all of the experiments.
In this experiment, 5×10^3 cells in 100 μL of culture medium were seeded into each well of a 96-well plate. […]
as §3
Percent viable cells were expressed as; A/B, where A is absorbance at 490 nm with antioxidant compounds (RFT, PFR, PFT) and H2O2 or Ethanol pre-treatments; B absorbance at 490 nm with 0.1% FBS (control). […]
For data set [3], the system named is human gingival fibroblast (HGF) cells. Particulars: 6, 8 or 10 mM nicotine, two hours.
Protocol: Cells were then treated with a solution containing either the three antioxidants described above, or a 1:1 ratio of only two antioxidants, or only a single antioxidant. Cell migration was recorded using BioStation Live Cell Imaging (Nikon Instruments, Melvile, N.Y.) every hour for ten hours, and data presented here is for 1 hour, 5 hours, or 10 hours.
In the next data set the test system is Rac-GTP in HGF cells. Briefly: Rac-GTP immunofluorescence in scratch wound assay, nicotine-exposed HGF. The format is cell-based, human. How it is done:
(§1) Both cell types tested (HGF and HPDL) were plated at 5×10^4 cells/well in a Lab-Tek II chamber glass slide with cover (Nalge Nunc International, Rochester, N.Y.). Approximately 400 μl of cell medium suspension was added to each well. The cells were grown overnight until confluent. Cells were pretreated with nicotine (10 mM, 8 mM and 6 mM) for two hours and then treated with antioxidants (resveratrol, trans=ferulic acid, tetrahydrocurcuminoids CG™, or phloretin) in double or triple combinations at 0.4% w/v (10^−5M). Two hours later, a scratch wound assay was performed using a sterile 10 μl pipet tip.
(§2) The cells were fixed with 4% paraformaldehyde for 30 minutes and then washed with sterile phosphate buffered saline (PBS) three times. […] The secondary antibody (1:500 Alexa Fluor® 488 goat anti-mouse IgG (H+L) (Molecular Probes, Eugene, Oreg.) was incubated for two hours at room temperature. The stained cells were washed with PBS three times. The Lab-Tek II wells were removed and the cells were cover-slipped with slowfade mounting medium. Analysis of the levels of Rac-GTP at the leading edge of the wound were determined using confocal microscopy. All treatments were recorded with the same settings on a Leica SP2 microscope. All images were taken from projected z stacks of the immunolabeled cells. Intensity of Rac-GTP immunofluorescence was determined using Nikon Elements software. […]

In the next data set the test system is Rac-GTP in HPDL cells. Put plainly: Rac-GTP immunofluorescence in scratch wound assay, nicotine-exposed HPDL. The class given is cell-based, human. The following applies: nicotine 6 mM, 8 mM, 10 mM. As to the method:
as §1, §2

`OO` [Formulation H2O2, hydrogen peroxide]: the “viable cells (MTS) after H2O2” value in data set [1] and in data set [2] was “dose-dependent decrease of viable cells” each time.
On to `CN1CCCC1c1cccnc1` (centres unmarked) [nicotine], for which the “effect of nicotine on cell migration” value in data set [3] is on record as “deleterious effect on cell migration that increased with exposure to more concentrated nicotine”. Besides, the “effect of nicotine on Rac-GTP expression” value with Rac-GTP in HGF cells (nicotine 6 mM, 8 mM, 10 mM) is recorded as “dose dependent decrease”; in the data set on Rac-GTP in HPDL cells it was “dose dependent decrease”.
Turning to `COc1cc(/C=C/C(=O)O)ccc1O` [trans-ferulic acid], the “increase of Rac-GTP expression over nicotine treated cells (6 mM Nic), mean pixel intensity” value in the data set on Rac-GTP in HGF cells (6 mM nicotine two hours, then antioxidants 10^−5 M, leading edge of the wound) came out at 35%.
On to ethyl alcohol [Ethanol], for which the “cell viability (MTS) after ethanol” value in data set [1] and in data set [2] was “dose dependent effect on cell viability” in each case.
